Data: US20240293562A1, “METHODS FOR USING NEUROTROPHIN RECEPTOR BINDING CONJUGATE COMPOSITIONS IN THE TREATMENT OF A NEUROLOGICAL CONDITION” (Manzanita Pharmaceuticals, Inc., priority 2020, published 2024)

Tested on: Superior cervical ganglia (SCG) neurons
Experiment: Bioassay of neuronal survival in primary superior cervical ganglia neurons
Format: cell-based, Sprague Dawley rat
Settings: primary SCG neurons from E-21 rat pups, microfluidic devices
From the text: The SCG assay was adapted to compartmented cultures and updated to grow primary neurons in microfluidic devices SCG neurons were harvested from E-21 Sprague Dawley rat pups. If labeled NGF has similar bioavailability to the unlabeled NGF, i.e., TrkA binding sites remain intact. FIG. 2 (right) compares left panels of study article with right panels showing treatment with NGF only.

Substance: nerve growth factor [NGF]
- neuronal survival: appear to show neuronal survival
